Test results reported in patent publication US9078871B2, “Estrogen receptor modulators and uses thereof” (SERAGON PHARMACEUTICALS, INC., priority 2010, dated 2015).

Columns and labels:
Format in all cases: cell-based
MCF-7 cells = experiment: Breast Cancer Cell Viability Assay (MCF7 Viability Assay); details: 5 days' compound exposure, CellTiter-Glo; for IC50: Homo sapiens, MCF7, 120 h
Description: MCF-7 cells were adjusted to a concentration of 20,000 cells per mL in RPMI containing 10% FBS and 20 mM HEPES. 16 microliters of the cell suspension (320 cells) was added to each well of a 384 well plate, and the cells were incubated overnight to allow the cells to adhere. The following day an eleven point, serial semilog dilution of each compound was added to the cells in 16 μL at a final concentration ranging from 0.3-0.000003 μM. After 5 days' compound exposure, 16 μL of CellTiter-GLo (Promega, Madison Wis.) was added to the cells the relative luminescence units (RLUs) of each well was determined. CellTiter-Glo added to 32 μL of medium without cells was used to obtain a background value. The Percent viability of each sample was determined as follows: (RLU sample-RLU background/RLU untreated cells-RLU background)×100=% viability.

ER-α [1] = target: T1, ER-α (Homo sapiens, UniProt P03372); experiment: ER-α In Cell Western Assay (ER1D5); details: MCF-7 cells, ER1D5 antibody, 4 or 24 hr post compound addition, read-out: ER In-Cell Western Assay (ER1D5); for Emax: MCF7, Max Response; for DC50: IC50
T1 construct: endogenous in cells; host or cells: MCF-7
T1 sequence (P03372 1-595): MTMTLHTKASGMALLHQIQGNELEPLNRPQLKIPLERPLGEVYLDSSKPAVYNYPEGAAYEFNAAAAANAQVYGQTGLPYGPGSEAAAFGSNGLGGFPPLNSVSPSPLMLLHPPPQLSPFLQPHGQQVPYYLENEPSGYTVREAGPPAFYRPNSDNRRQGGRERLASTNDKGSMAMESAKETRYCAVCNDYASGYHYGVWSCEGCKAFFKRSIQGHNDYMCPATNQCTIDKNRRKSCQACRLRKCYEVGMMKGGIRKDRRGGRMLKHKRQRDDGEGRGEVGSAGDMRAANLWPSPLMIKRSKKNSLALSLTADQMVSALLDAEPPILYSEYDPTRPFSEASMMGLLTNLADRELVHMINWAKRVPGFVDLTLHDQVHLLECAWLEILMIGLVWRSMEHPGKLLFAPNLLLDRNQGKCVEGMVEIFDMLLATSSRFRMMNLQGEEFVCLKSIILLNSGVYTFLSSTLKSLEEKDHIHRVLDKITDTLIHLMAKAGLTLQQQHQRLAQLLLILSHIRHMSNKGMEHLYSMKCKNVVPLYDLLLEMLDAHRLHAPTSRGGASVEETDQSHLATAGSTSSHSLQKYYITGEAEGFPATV
Description: (§1) MCF-7 cells were adjusted to a concentration of 200,000 cells per mL in RPMI containing 10% charcoal-stripped FBS and 20 mM HEPES. 16 microliters of the cell suspension (3200 cells) was added to each well of a poly-D-lysine 384 well plate, and the cells were incubated overnight to allow the cells to adhere. The following day an eleven point, serial semilog dilution of each compound was added to the cells in 16 μL at a final concentration ranging from 0.3-0.000003 μM. At 4 or 24 hr post compound addition, the cells were fixed (10% formalin in PBS) for 20 minutes. Cells were permeabalized in PBS 0.1% Triton and blocked with LICOR blocking buffer (50 μl/well, 90′). The wells were then incubated overnight at 4° C. with ER1D5 (Santa Cruz Biotechnology) diluted 1:100 in LICOR blocking buffer/0.1% Tween-20. Wells which were treated with blocking buffer with Tween but no antibody were used as a background control. Wells were washed with 0.1% Tween-20/PBS and then incubated in goat anti-mouse IRDye™ 800CW (LICOR Inc.; 1:1000) and DRAQ5 DNA dye (1:2000 for 2 mM stock) diluted in LICOR blocking buffer containing 0.1% Tween-20 and 0.01% SDS for 60 minutes. Cells were washed (50 μl/well, 5′ each) in 0.1% Tween-20/PBS. Plates were scanned on a LICOR Odyssey infrared imaging system. Integrated intensities in the 800 nm channel and 700 nm channel were measured to determine levels of ER and DNA respectively. Percent ER levels were determined as follows: (Integrated intensity 800 nm sample/integrated intensity 700 nm sample)/(Integrated intensity 800 nm untreated cells/integrated intensity 700 nm untreated cells)×100=% ER levels.

ER-α [2] = target: T1, ER-α; experiment: ER-α in Cell Western Assay (SP1); details: MCF-7 cells, SP1 rabbit monoclonal Ab, 4 or 24 hr post compound addition, read-out: ER In-Cell Western Assay (SP1); for Emax: MCF7, Max Response; for DC50: IC50
Description: as §1, with “with SP1 rabbit monoclonal Ab (Thermo Scientific)” for “with ER1D5 (Santa Cruz Biotechnology)”, “diluted 1:1000” for “diluted 1:100”, “goat anti-rabbit” for “goat anti-mouse”

Row | Compound | MCF7 Viability Assay Max Response (MCF-7 cells) | IC50 (MCF-7 cells) | Emax (ER-α [1]) | DC50 (ER-α [1]) | Emax (ER-α [2]) | DC50 (ER-α [2])
1 | CC1=C(c2cccc(O)c2)C(c2ccc(OC[C@H](C)N3CC[C@@H](C)C3)cc2)Oc2ccc(O)cc21 (mixture of isomers) [Example 2, 3-(3-Hydroxyphenyl)-4-methyl-2-(4-((S)-2-((R)-3-methylpyrrolidin-1-yl)propoxy)phenyl)-2H-chromen-6-ol] | ++ (++ = a single % value ≧50%) | ≤ 1 nM | ≥ 65% | ≤ 1 nM | ≥ 85% | ≤ 1 nM
2 | CC1=C(c2ccc(F)cc2)C(c2ccc(OC[C@H](C)N3CC[C@@H](C)C3)cc2)Oc2ccc(O)cc21 (mixture of isomers) [Example 30, 3-(4-Fluorophenyl)-4-methyl-2-(4-((S)-2-((R)-3-methylpyrrolidin-1-yl)propoxy)phenyl)-2H-chromen-6-ol] | ++ (++ = a single % value ≧50%) | ≤ 1 nM | ≥ 65% | ≤ 1 nM | 60 to 85% | ≤ 1 nM
3 | CC1=C(c2cccc(O)c2)[C@H](c2ccc(OC[C@H](C)N3CC[C@@H](C)C3)cc2)Oc2ccc(O)cc21 (single isomer, unassigned) [Example 2a] | ++ (++ = a single % value ≧50%) | ≤ 1 nM | ≥ 65% | ≤ 1 nM | ≥ 85% | ≤ 1 nM
4 | CC1=C(c2cccc(O)c2)[C@@H](c2ccc(OC[C@H](C)N3CC[C@@H](C)C3)cc2)Oc2ccc(O)cc21 (single isomer, unassigned) [Example 2b] | ++ (++ = a single % value ≧50%) | > 1 nM | ≥ 65% | > 1 nM | ≥ 85% | > 1 nM
5 | CC1=C(c2cccc(O)c2)C(c2ccc(OC[C@H](C)N3CCCCC3)cc2)Oc2ccc(O)cc21 (stereo partly drawn) [Example 1, 3-(3-Hydroxyphenyl)-4-methyl-2-(4-((S)-2-(piperidin-1-yl)propoxy)phenyl)-2H-chromen-6-ol] | ++ (++ = a single % value ≧50%) | ≤ 1 nM | 40 to 65% | ≤ 1 nM | 60 to 85% | ≤ 1 nM
6 | CC1=C(c2cc(O)ccc2F)C(c2ccc(OC[C@H](C)N3CC[C@@H](C)C3)cc2)Oc2ccc(O)cc21 (stereo partly drawn) [Example 62, 3-(2-Fluoro-5-hydroxyphenyl)-4-methyl-2-(4-((S)-2-((R)-3-methylpyrrolidin-1-yl)propoxy)phenyl)-2H-chromen-6-ol] | ++ (++ = a single % value ≧50%) | ≤ 1 nM |  |  | ≥ 85% | ≤ 1 nM
7 | CC1=C(c2ccc(F)cc2)C(c2ccc(OC[C@H](C)N3CCC[C@H]3C)cc2)Oc2ccc(O)cc21 (stereo partly drawn) [Example 63, 3-(4-Fluorophenyl)-4-methyl-2-(4-((S)-2-((R)-2-methylpyrrolidin-1-yl)propoxy)phenyl)-2H-chromen-6-ol] | ++ (++ = a single % value ≧50%) | ≤ 1 nM |  |  | 60 to 85% | ≤ 1 nM
8 | CC1=C(c2cccc(O)c2)C(c2ccc(OC[C@H](C)N3CC[C@@H](F)C3)cc2)Oc2ccc(O)cc21 (stereo partly drawn) [Example 64, 2-(4-((S)-2-((R)-3-Fluoropyrrolidin-1-yl)propoxy)phenyl)-3-(3-hydroxyphenyl)-4-methyl-2H-chromen-6-ol] | ++ (++ = a single % value ≧50%) | ≤ 1 nM |  |  | ≥ 85% | ≤ 1 nM
9 | CC1=C(c2cccc(O)c2)C(c2ccc(OC[C@H](C)N3C4CCC3CC4)cc2)Oc2ccc(O)cc21 (stereo partly drawn) [Example 67, 2-(4-((S)-2-(7-Azabicyclo[2.2.1]heptan-7-yl)propoxy)phenyl)-3-(3-hydroxyphenyl)-4-methyl-2H-chromen-6-ol] | ++ (++ = a single % value ≧50%) | ≤ 1 nM |  |  | < 60% | ≤ 1 nM
10 | CC1=C(c2ccc(C(F)(F)F)c(O)c2)C(c2ccc(OC[C@H](C)N3CC[C@@H](C)C3)cc2)Oc2ccc(O)cc21 (stereo partly drawn) [Example 68, 3-(3-Hydroxy-4-(trifluoromethyl)phenyl)-4-methyl-2-(4-((S)-2-((R)-3-methylpyrrolidin-1-yl)propoxy)phenyl)-2H-chromen-6-ol] | ++ (++ = a single % value ≧50%) | > 1 nM |  |  | 60 to 85% | > 1 nM
11 | CC1=C(c2ccc(O)c(C(F)(F)F)c2)C(c2ccc(OC[C@H](C)N3CC[C@@H](C)C3)cc2)Oc2ccc(O)cc21 (stereo partly drawn) [Example 69, 3-(4-Hydroxy-3-(trifluoromethyl)phenyl)-4-methyl-2-(4-((S)-2-((R)-3-methylpyrrolidin-1-yl)propoxy)phenyl)-2H-chromen-6-ol] | ++ (++ = a single % value ≧50%) | > 1 nM |  |  | 60 to 85% | ≤ 1 nM
12 | CC1=C(c2ccc(F)cc2)C(c2ccc(OC[C@H](C)N3CCOCC3)cc2)Oc2ccc(O)cc21 (stereo partly drawn) [Example 70, 3-(4-Fluorophenyl)-4-methyl-2-(4-((S)-2-morpholinopropoxy)phenyl)-2H-chromen-6-ol] | ++ (++ = a single % value ≧50%) | > 1 nM |  |  | 60 to 85% | ≤ 1 nM
13 | CC1=C(c2ccc(F)cc2)C(c2ccc(OC[C@H](C)N3CC4CC4C3)cc2)Oc2ccc(O)cc21 (stereo partly drawn) [Example 71, 2-(4-((2S)-2-(3-Azabicyclo[3.1.0]hexan-3-yl)propoxy)phenyl)-3-(4-fluorophenyl)-4-methyl-2H-chromen-6-ol] | ++ (++ = a single % value ≧50%) | > 1 nM |  |  | 60 to 85% | ≤ 1 nM
